Source: the Kinase Knowledgebase extract (Sharma et al. 2016)

Biological target: PIK3CA (human) (UniProt P42336)
Assay: Assessment of PIK3CA Kinase Activity

PIK3CA (human), sequence (P42336 whole entry, looked up): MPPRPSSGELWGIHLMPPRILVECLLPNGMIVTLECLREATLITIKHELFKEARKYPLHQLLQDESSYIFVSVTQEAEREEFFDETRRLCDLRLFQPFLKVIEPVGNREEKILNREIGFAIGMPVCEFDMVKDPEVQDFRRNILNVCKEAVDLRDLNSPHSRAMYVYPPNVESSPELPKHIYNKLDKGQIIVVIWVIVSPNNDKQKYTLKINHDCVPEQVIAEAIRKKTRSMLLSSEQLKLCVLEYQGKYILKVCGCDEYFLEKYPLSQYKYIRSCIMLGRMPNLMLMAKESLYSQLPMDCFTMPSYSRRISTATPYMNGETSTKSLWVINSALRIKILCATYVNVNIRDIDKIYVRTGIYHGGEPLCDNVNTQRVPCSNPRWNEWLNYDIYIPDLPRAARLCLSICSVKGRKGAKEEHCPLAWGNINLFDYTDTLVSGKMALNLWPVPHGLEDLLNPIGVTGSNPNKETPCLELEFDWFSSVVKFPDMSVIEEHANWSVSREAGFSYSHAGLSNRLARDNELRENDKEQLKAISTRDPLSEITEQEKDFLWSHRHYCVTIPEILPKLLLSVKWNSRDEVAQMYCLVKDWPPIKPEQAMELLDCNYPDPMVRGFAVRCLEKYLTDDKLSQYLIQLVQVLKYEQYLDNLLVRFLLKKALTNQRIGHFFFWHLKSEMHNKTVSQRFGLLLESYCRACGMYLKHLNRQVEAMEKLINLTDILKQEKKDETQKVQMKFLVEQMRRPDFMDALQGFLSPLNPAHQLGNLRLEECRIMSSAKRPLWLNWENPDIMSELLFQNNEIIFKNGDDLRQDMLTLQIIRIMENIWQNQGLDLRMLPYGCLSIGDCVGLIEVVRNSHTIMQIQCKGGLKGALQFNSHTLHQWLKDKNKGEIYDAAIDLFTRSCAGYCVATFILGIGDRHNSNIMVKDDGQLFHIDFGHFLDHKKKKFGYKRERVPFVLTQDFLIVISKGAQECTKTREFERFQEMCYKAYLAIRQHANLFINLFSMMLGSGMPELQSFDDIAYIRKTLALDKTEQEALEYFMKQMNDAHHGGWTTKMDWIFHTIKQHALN

IC50 [µM]	Compound
< 0.05	Cc1nn(C)c(C)c1-c1ccc2c(N3CCOCC3)nc(-c3ccc(NC(=O)Nc4ccc(C(=O)N(C)C)cc4)cc3)nc2c1
0.05 to 0.2	CNC(=O)c1ccc(NC(=O)Nc2ccc(-c3nc(N4CCOCC4)c4ccc(-c5cncnc5)cc4n3)cc2F)cc1
0.05 to 0.2	Cc1ccc(-c2ccc3c(N4CCOCC4)nc(-c4ccc(NC(=O)Nc5ccc(C(=O)N6CC[C@H](N(C)C)C6)cc5)cc4)nc3c2)o1
0.05 to 0.2	COc1ccc(-c2ccc3c(N4CCOCC4)nc(-c4ccc(NC(=O)Nc5ccc(C(=O)N(C)C)cc5)cc4F)nc3c2)cn1
0.05 to 0.2	CN(C)C(=O)c1ccc(NC(=O)Nc2cc(F)c(-c3nc(N4CCOCC4)c4ccc(-c5cncnc5)cc4n3)cc2F)cc1
< 0.05	CN(C)C(=O)c1ccc(NC(=O)Nc2ccc(-c3nc(N4CCOCC4)c4ccc(-c5ccccn5)cc4n3)cc2)c(F)c1
0.05 to 0.2	Cc1ccc(-c2ccc3c(N4CCOCC4)nc(-c4ccc(NC(=O)Nc5ccc(C(=O)NCCN(C)C)cc5)cc4)nc3c2)o1
0.05 to 0.2	CC(O)c1ccc(-c2ccc3c(N4CCOCC4)nc(-c4ccc(NC(=O)Nc5ccc(C(=O)N(C)C)cc5)cc4F)nc3c2)o1 (configuration not stated)
< 0.05	CN(C)C(=O)c1ccc(NC(=O)Nc2ccc(-c3nc(N4CCOCC4)c4ccc(-c5ccc(CO)o5)cc4n3)cc2)cc1F
< 0.05	CN(C)C(=O)c1ccc(NC(=O)Nc2ccc(-c3nc(N4CCOCC4)c4ccc(-c5cnn(C)c5)cc4n3)cn2)c(F)c1
< 0.05	COc1ncc(-c2ccc3c(N4CCOCC4)nc(-c4ccc(NC(=O)Nc5ccc(C(=O)N(C)C)c(F)c5)cc4)nc3c2)cn1
< 0.05	COc1ncc(-c2cnc3c(N4CCOCC4)nc(-c4ccc(NC(=O)Nc5ccc(C(=O)N(C)C)cc5)c(F)c4)nc3c2)cn1
0.05 to 0.2	CN(C)C(=O)c1ccc(NC(=O)Nc2ccc(-c3nc(N4CCOCC4)c4ccc(-c5cncnc5)cc4n3)c(F)c2F)cc1
0.05 to 0.2	COc1ncc(-c2ccc3c(N4CCOCC4)nc(-c4ccc(NC(=O)Nc5ccc(C(=O)N(C)C)cc5F)cc4)nc3c2)cn1
< 0.05	CN(C)C(=O)c1ccc(NC(=O)Nc2ccc(-c3nc(N4CCOCC4)c4ccc(-c5ccco5)cc4n3)cc2)c(F)c1
0.05 to 0.2	CN(C)C(=O)c1ccc(NC(=O)Nc2ccc(-c3nc(N4CCOCC4)c4cc(F)c(-c5cccnc5)cc4n3)cc2F)cc1
0.05 to 0.2	Cc1noc(C)c1-c1ccc2c(N3CCOCC3)nc(-c3ccc(NC(=O)Nc4ccc(C(=O)N5CC[C@H](N(C)C)C5)cc4)c(F)c3)nc2c1

IC50 [µM]	Compound
< 0.05	Cc1ccc(-c2ccc3c(N4CCOCC4)nc(-c4ccc(NC(=O)Nc5ccc(C(=O)N(C)C)cc5F)cc4)nc3c2)cn1
< 0.05	CN(C)C(=O)c1ccc(NC(=O)Nc2ccc(-c3nc(N4CCOCC4)c4cc(F)c(-c5cccnc5)cc4n3)cc2)c(F)c1
< 0.05	Cc1ccc(-c2cnc3c(N4CCOCC4)nc(-c4ccc(NC(=O)Nc5ccc(C(=O)N(C)C)cc5)cc4)nc3c2)o1
< 0.05	Cc1noc(C)c1-c1ccc2c(N3CCOCC3)nc(-c3ccc(NC(=O)Nc4ccc(C(=O)N(C)C)cc4)cc3)nc2c1
0.05 to 0.2	Cc1ccc(-c2ccc3c(N4CCOCC4)nc(-c4ccc(NC(=O)Nc5ccc(C(=O)N(C)C)nc5)c(F)c4)nc3c2)o1
0.05 to 0.2	CN(C)C(=O)c1ccc(NC(=O)Nc2ccc(-c3nc(N4CCOCC4)c4ccc(C(C)(C)O)cc4n3)cc2F)cc1
0.05 to 0.2	CN(C)C(=O)c1ccc(NC(=O)Nc2ccc(-c3nc(N4CCOCC4)c4cc(F)c(-c5cnn(C)c5)cc4n3)cc2F)cc1
< 0.05	CN(C)C(=O)c1ccc(NC(=O)Nc2ccc(-c3nc(N4CCOCC4)c4ccc(-c5ccc(C(C)(C)O)o5)cc4n3)cc2)cc1
0.05 to 0.2	CC(=O)Nc1ccc(NC(=O)Nc2ccc(-c3nc(N4CCOCC4)c4ccc(-c5ccc(C)o5)cc4n3)cc2)cc1
< 0.05	CC(=O)c1ccc(-c2ccc3c(N4CCOCC4)nc(-c4ccc(NC(=O)Nc5ccc(C(=O)N(C)C)c(F)c5)cc4)nc3c2)o1
0.05 to 0.2	COc1ccc(-c2ccc3c(N4CCOCC4)nc(-c4ccc(NC(=O)Nc5ccc(C(=O)N(C)C)c(F)c5)cc4)nc3c2)cn1
0.05 to 0.2	Cc1noc(C)c1-c1ccc2c(N3CCOCC3)nc(-c3ccc(NC(=O)Nc4ccc(C(=O)N(C)C)c(F)c4)cc3)nc2c1
< 0.05	CN(C)C(=O)c1ccc(NC(=O)Nc2ccc(-c3nc(N4CCOCC4)c4ccc(-c5cccnc5)cc4n3)cc2F)cc1
0.05 to 0.2	COc1ncc(-c2ccc3c(N4CCOCC4)nc(-c4ccc(NC(=O)Nc5ccc(C(=O)N(C)C)cc5)c(F)c4)nc3c2)cn1
0.05 to 0.2	CN(C)C(=O)c1ccc(NC(=O)Nc2ccc(-c3nc(N4CCOCC4)c4ccc(-c5ccco5)cc4n3)cc2)cc1F
< 0.05	CC(O)c1ccc(-c2ccc3c(N4CCOCC4)nc(-c4ccc(NC(=O)Nc5ccc(C(=O)N(C)C)cc5)c(F)c4)nc3c2)o1 (configuration not stated)
< 0.05	CN(C)C(=O)c1ccc(NC(=O)Nc2ccc(-c3nc(N4CCOCC4)c4ncc(-c5cnn(C)c5)cc4n3)cc2F)cn1

The remaining lines, values behind:

Compound	IC50 [µM]
CN(C)C(=O)c1ccc(NC(=O)Nc2ccc(-c3nc(N4CCOCC4)c4ccc(-c5cccc(CO)c5)cc4n3)cc2)cc1	< 0.05
Cc1ccc(-c2ccc3c(N4CCOC(C)C4)nc(-c4ccc(NC(=O)Nc5ccc(C(=O)N(C)C)cc5)cc4)nc3c2)o1 (configuration not stated)	0.05 to 0.2
CN(C)C(=O)c1ccc(NC(=O)Nc2ccc(-c3nc(N4CCOCC4)c4ccc(-c5cncc(F)c5)cc4n3)cc2)cc1	< 0.05
CN(C)C(=O)c1ccc(NC(=O)Nc2ccc(-c3nc(N4CCOCC4)c4cccc(-c5ccc(F)nc5)c4n3)cc2)cc1	0.05 to 0.2
CN(C)C(=O)c1ccc(NC(=O)Nc2ccc(-c3nc(N4CCOCC4)c4ccc(-c5cccc(O)c5)cc4n3)cc2)cc1	< 0.05
CN(C)C(=O)c1ccc(NC(=O)Nc2ccc(-c3nc(N4CCOCC4)c4ncc(-c5cnc(N)nc5)cc4n3)cc2)cc1	< 0.05
CC(=O)Nc1ccc(NC(=O)Nc2ccc(-c3nc(N4CCOCC4)c4ncc(-c5cccnc5F)cc4n3)cc2)cc1	< 0.05
CN(C)CCn1cc(-c2ccc3c(N4CCOCC4)nc(-c4ccc(NC(=O)Nc5ccc(C(=O)N(C)C)cc5)cc4)nc3c2)cn1	0.05 to 0.2
CN(C)C(=O)c1ccc(NC(=O)Nc2ccc(-c3nc(N4CCOCC4)c4cc(F)c(-c5cncc(S(C)(=O)=O)c5)cc4n3)cc2)cc1	< 0.05
CN(C)C(=O)c1ccc(NC(=O)Nc2ccc(-c3nc(N4CCOCC4)c4ccc(-c5ccsc5)cc4n3)cc2)cc1	< 0.05
CN(C)C(=O)c1ccc(NC(=O)Nc2ccc(-c3nc(N4CCOCC4)c4ncc(-c5cnn(C)c5)cc4n3)c(F)c2)cc1	< 0.05
CC(=O)Nc1ccc(NC(=O)Nc2ccc(-c3nc(N4CCOCC4)c4ccc(-c5cncnc5)cc4n3)cc2)cc1	< 0.05
CN(C)C1CCN(C(=O)c2ccc(NC(=O)Nc3ccc(-c4nc(N5CCOCC5)c5ncc(-c6cnn(C)c6)cc5n4)cc3)cc2)CC1	< 0.05
COc1cc2nc(-c3ccc(NC(=O)Nc4ccc(C(=O)N(C)C)cc4)cc3)nc(N3CCOCC3)c2cc1OC	0.05 to 0.2
CN(C)CCNC(=O)c1ccc(NC(=O)Nc2ccc(-c3nc(N4CCOCC4)c4ccc(-c5cncnc5)cc4n3)cc2)cc1	0.05 to 0.2
CN1CCN(C(=O)c2ccc(NC(=O)Nc3ccc(-c4nc(N5CCOCC5)c5ccc(-c6cccc(S(C)(=O)=O)c6)cc5n4)cc3)cc2)CC1	< 0.05
CN(C)C(=O)c1ccc(NC(=O)Nc2ccc(-c3nc(N4CCOCC4)c4ncc(-c5cnn(C)c5)cc4n3)cc2)cc1	< 0.05
CN(C)C(=O)c1ccc(NC(=O)Nc2ccc(-c3nc(N4CCOCC4)c4cc(F)c(-c5ccco5)cc4n3)cc2)cc1	0.05 to 0.2
CC1CN(c2nc(-c3ccc(NC(=O)Nc4ccc(C(=O)N(C)C)cc4)cc3)nc3cc(-c4cnn(C)c4)cnc23)CCO1 (configuration not stated)	< 0.05

Compound	IC50 [µM]
CN(C)C(=O)c1ccc(NC(=O)Nc2ccc(-c3nc(N4CCOCC4)c4ccc(-c5cccnc5F)cc4n3)c(F)c2)cc1	< 0.05
CN(C)C(=O)c1ccc(NC(=O)Nc2ccc(-c3nc(N4CCOCC4)c4ccc(-c5cnn(C)c5)cc4n3)cn2)cc1	< 0.05
CN(C)C1CCN(C(=O)c2ccc(NC(=O)Nc3ccc(-c4nc(N5CCOCC5)c5ccc(-c6cccnc6F)cc5n4)cn3)cc2)CC1	< 0.05
CS(=O)(=O)c1cccc(-c2ccc3c(N4CCOCC4)nc(-c4ccc(NC(=O)Nc5ccc(C(N)=O)cc5)cc4)nc3c2)c1	0.05 to 0.2
Cc1noc(C)c1-c1ccc2c(N3CCOCC3)nc(-c3ccc(NC(=O)Nc4ccc(C(=O)N(C)C)cc4)cc3F)nc2c1	0.05 to 0.2
COc1cccc(-c2ccc3c(N4CCOCC4)nc(-c4ccc(NC(=O)Nc5ccc(C(=O)N(C)C)cc5)cc4)nc3c2)n1	0.05 to 0.2
COc1ncc(-c2ccc3c(N4CCOCC4)nc(-c4ccc(NC(=O)Nc5ccc(C(=O)N(C)C)cc5)nc4)nc3c2)cn1	< 0.05
CN(C)C(=O)c1ccc(NC(=O)Nc2ccc(-c3nc(N4CCOCC4)c4ccc(-c5cccc(S(C)(=O)=O)c5)cc4n3)c(F)c2)cc1	< 0.05
CN(C)[C@@H]1CCN(C(=O)c2ccc(NC(=O)Nc3ccc(-c4nc(N5CCOCC5)c5ccc(C(C)(C)O)cc5n4)cc3)cc2)C1	0.05 to 0.2
CN(C)C(=O)c1ccc(NC(=O)Nc2ccc(-c3nc(N4CCOCC4)c4ncc(-c5cnn(C)c5)cc4n3)cc2)cc1F	< 0.05
CN(C)C(=O)c1ccc(NC(=O)Nc2ccc(-c3nc(N4CCOCC4)c4ccc(-c5ccnc(F)c5)cc4n3)cc2)cc1	< 0.05
CN(C)C(=O)c1ccc(NC(=O)Nc2ccc(-c3nc(N4CCOCC4)c4ccc(-c5ccncc5)cc4n3)cc2)cc1	< 0.05
Cc1ccc(-c2ccc3c(N4CCOCC4)nc(-c4ccc(NC(=O)Nc5ccc(C(=O)N6CCN(C)CC6)cc5)cc4)nc3c2)o1	0.05 to 0.2
CN(C)[C@H]1CCN(C(=O)c2ccc(NC(=O)Nc3ccc(-c4nc(N5CCOCC5)c5ccc(-c6cncnc6)cc5n4)cc3)cc2)C1	< 0.05
CC(=O)Nc1cccc(-c2ccc3c(N4CCOCC4)nc(-c4ccc(NC(=O)Nc5ccc(C(=O)N(C)C)cc5)cc4)nc3c2)c1	< 0.05
CN1CCN(C(=O)c2ccc(NC(=O)Nc3ccc(-c4nc(N5CCOCC5)c5ncc(-c6cncnc6)cc5n4)cc3)cc2)CC1	< 0.05
CN(C)[C@H]1CCN(C(=O)c2ccc(NC(=O)Nc3ccc(-c4nc(N5CCOCC5)c5ncc(-c6cccnc6F)cc5n4)cc3F)cc2)C1	< 0.05
CN(C)[C@H]1CCN(C(=O)c2ccc(NC(=O)Nc3ccc(-c4nc(N5CCOCC5)c5ncc(-c6cnn(C)c6)cc5n4)cc3F)cc2)C1	< 0.05
COc1ncccc1-c1ccc2c(N3CCOCC3)nc(-c3ccc(NC(=O)Nc4ccc(C(=O)N(C)C)cc4)cc3)nc2c1	< 0.05
